Entries after “also recorded” stand apart in the source; their conditions may differ.
Tests used:
[1] = system: estrogen sulfotransferase (EST); assay: EST mRNA expression in mouse tissues (Northern blot, real-time PCR) after agonist treatment; format: in vivo; conditions: for EST mRNA expression in liver: wild-type mice, compared to control (DMSO)
Protocol: Transgenic mice, having a mixed background of C57BL/6J and 129/SvImJ, were created expressing activated LXRa in the liver under the control of the fatty acid binding protein (FABP) promoter. (FIG. 1) EST levels in liver cells of the transgenic mice were compared to wild-type mice using Northern blot analysis and real-time PCR, as described in Gong, H. et al. Mol. Endocrinol. 20:279-290 (2006) and Zhou, J. et al. J Biol Chem. 281: 15013-15020 (2006), respectively.
Wild-type mice were treated with LXR agonists TO1317 (T0901317) or 22(R)-hydroxycholesterol (FIG. 1a), and EST levels were compared to DMSO-treated control mice as described above.
LXRα and LXRβ double knockout (LXR DKO) mice were created as described in Peet, D. J. et al., Cell 93:693-704 (1998).

EST = EST mRNA expression in primary human hepatocytes (RT-PCR); format: cell-based; conditions: compared to DMSO control
Protocol: Expression of EST MRNA was measured as described above in human hepatocytes and in human breast cancer line MCF7.

CYP3A (PXR target gene) = assay: CYP3A expression in mouse liver (Northern blot); format: in vivo
[2] = system: uterine epithelial proliferation; assay: Uterine estrogen response: epithelial proliferation by BrdU labeling in ovariectomized mice; format: in vivo, mouse
[3] = system: estrogen-responsive uterine genes (Pgr, c-fos, Igf-1, Txnip); assay: Estrogen-responsive uterine gene expression by real-time PCR in ovariectomized mice; format: in vivo, mouse
LXRα = molecular target: T1, LXRα (Mus musculus, UniProt Q9Z0Y9); assay: mEst promoter luciferase reporter assay in HepG2 cells co-transfected with LXRα; format: cell-based; conditions: TO1317 10 μM 24 h
T1 construct: expressed in transfected cells; host or cells: HepG2
T1 sequence (Q9Z0Y9 1-445): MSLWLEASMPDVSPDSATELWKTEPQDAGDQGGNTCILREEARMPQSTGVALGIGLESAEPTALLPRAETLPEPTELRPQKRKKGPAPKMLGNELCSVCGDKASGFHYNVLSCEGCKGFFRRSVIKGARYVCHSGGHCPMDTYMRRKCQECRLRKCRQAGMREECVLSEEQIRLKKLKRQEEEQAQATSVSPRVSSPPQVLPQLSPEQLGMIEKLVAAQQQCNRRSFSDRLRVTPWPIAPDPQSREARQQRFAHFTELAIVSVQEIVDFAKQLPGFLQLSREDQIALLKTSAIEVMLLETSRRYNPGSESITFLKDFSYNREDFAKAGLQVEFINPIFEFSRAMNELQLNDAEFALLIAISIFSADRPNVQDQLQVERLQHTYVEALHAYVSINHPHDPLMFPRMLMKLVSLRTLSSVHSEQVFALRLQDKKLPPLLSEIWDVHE
From the text: (§1) The 4.2-kb (−4164 bp to +46 bp) 5′ regulatory sequences of the mEst gene were cloned by PCR using a template of mEst-containing bacterial artificial chromosome (BAC) clone (ID RP24-571N6) from the Children's Hospital Oakland Research Institute BACPAC Resource Center (Oakland, Calif.). Deletion mutants were generated by PCR-mediated mutagenesis. HepG2 cells were transfected with the reporter constructs and LXRα expression vector in 48-well plates as previously described . Gong, H. et al., Mol. Endocrinol. 20:279-290 (2006) When necessary, cells were treated with TO1317 (10 μM) for 24 h prior to luciferase assay. The transfection efficiency was normalized against the β-gal activities from a co-transfected CMX-β gal vector. The hydrodynamic liver transfection was performed as we previously described. Zhou, J. et al. J Biol Chem. 281: 15013-15020 (2006). EMSA were performed using in vitro transcribed and translated proteins as described previously. Saini, S. P. et al., Hepatology 41:497-505 (2005)

mouse LXRα = molecular target: T2, mouse LXRα (Mus musculus, UniProt Q9Z0Y9); assay: CHIP assay of HA-LXRα recruitment onto the Est promoter in transfected mouse liver; format: in vivo; conditions: wild type mouse liver, TO1317 50 mg/kg i.p.
T2 construct: expressed in transfected cells; host or cells: liver of wild type mice (hydrodynamic transfection in vivo)
T2 sequence (Q9Z0Y9 1-445): T1 sequence (Q9Z0Y9 1-445)
From the text: Zhou, J. et al. J Biol Chem. 281: 15013-15020 (2006). […] Zhou, J. et al. J Biol Chem. 281: 15013-15020 (2006).

[4] = system: mEst 2.1-kb natural promoter; assay: Hydrodynamic liver transfection of Est promoter reporter; format: in vivo
From the text: as §1

[5] = MCF-7/VEGF breast tumor xenograft in ovariectomized nude mice; format: in vivo, mouse
From the text: (§2) Ovariectomized nude mice were purchased from Taconic (Germantown, N.Y.). ER-positive and estrogen responsive breast cancer MCF-7 cells were used. The MCF-7 cells were MCF-7/VEGF cells that overexpress the vascular endothelial growth factor (VEGF), rather than parent MCF-7 cells. […] Guo, P. et al., Cancer Res. 63:4684-4691 (2003).
(§3) MCF-7 breast tumors were established in the mammary fat pads of ovariectomized female nude mice as described previously. Briefly, 1×10^7 of MCF-7/VEGF cells were inoculated into the mammary fat pads of 8-week old ovariectomized female nude mice that were implanted with E2 pellets (0.72 mg/60-day release) or placebo pellets (Innovative Research of America, Sarasota, Fla.). The E2-treated mice were randomly divided into two groups, with one group receiving daily treatment of TO1317 (15 mg/kg by gavage) and the other receiving vehicle. The volumes of the tumors were measured using a caliper every five days. Mice were labeled with BrdU 30 min prior to sacrificing. The serum concentrations of E2 were measured using the ACTIVE® ESTRADIOL EIA kit (Diagnostic Systems Laboratories, Webster, Tex.).
(§4) Breast tumors were established as described in Example 4, using MCF-7/VEGF cells.

MCF-7/VEGF cells = assay: as above; format: in vivo, mouse
From the text: as §2, §3, §4

uterus = assay: Uterotropic bioassay; format: in vivo, mouse; conditions: wild type female mice, E2 5 μg/kg s.c. daily for 3 d
Protocol: Ovariectomized wild type and VP-LXRα transgenic females were subjected to uterine estrogen response measurements that include epithelial proliferation by BrdU labeling and estrogen responsive gene expression by real-time PCR. Five-week old virgin females were subjected to ovariectomies. Seven days after the surgery, mice were given a single s.c. injection of 17β-estradiol (E2) (25 μg/mouse). 18 h after the E2 injection, mice were given a single i.p. injection of bromodeoxyuridine (BrdU) (60 mg/kg) and sacrificed 2 h after. One uterine horn was harvested for histology and measurement of cell proliferation by BrdU immunostaining (Xie, W., et al., Mol. Endocrinol. 11: 1766-1781 (1997)) and the other was harvested for RNA extraction and gene expression analysis by real-time PCR. In the uterotropic bioassay, 3-week-old virgin female mice received daily s.c. injections of vehicle or E2 (5 μg/kg) for 3 d. Mice were then sacrificed 24 h after the last E2 dose and the uteri were dissected, weighed, and photographed. When necessary, mice were subjected to daily treatment of TO1317 (50 mg/kg, i.p. injection) starting 3 d prior to the E2 treatment and continued until the completion of the experiments.

[6] = ovariectomized wild type female mice

For `C[C@@H]1C[C@H]2[C@@H]3CCC4=CC(=O)C=C[C@]4(C)[C@@]3(F)[C@@H](O)C[C@]2(C)[C@@]1(O)C(=O)CO` [dexamethasone], the “EST expression in PXR−/− mice” value ([1]; PXR−/− mice, liver) was “still induced” and the “EST mRNA induction in human hepatocytes” value (EST) was “increased induction”.
In the case of `CC(=O)[C@H]1[C@H](C#N)C[C@H]2[C@@H]3CC=C4C[C@@H](O)CC[C@]4(C)[C@H]3CC[C@@]21C` [PCN, pregnenolone-16alpha-carbonitrile], the CYP3A expression (CYP3A (PXR target gene)) is reported as “induced”.
For `O=S(=O)(c1ccccc1)N(CC(F)(F)F)c1ccc(C(O)(C(F)(F)F)C(F)(F)F)cc1` [TO1317], the “EST levels in LXR DKO mice” value ([1]; LXRα and LXRβ double knockout mice, compared with control mice) was “no increase”, the “EST expression in testis” value ([1]; testis of male mice) was “not observed” and the “EST mRNA expression in liver” value [1] was “up-regulated”. The “TO1317 effect on the E2 response (BrdU labeling) in EST null mice” value ([2]; EST null mice) was “abolished”, the “E2 effect on uterine BrdU labeling” value ([2]; ovariectomized wild type mice, TO1317 50 mg/kg i.p. daily pre-treatment, E2 25 μg/mouse s.c.) was “compromised” and the “basal proliferation (BrdU labeling)” value ([2]; treatment alone, in the absence of E2) was “little effect”. For the same compound, the “TO1317 effect on E2-responsive gene expression in EST null mice” value ([3]; EST null mice, uterus) was “abolished”, the “E2 effects on the expression of E2-responsive genes (Pgr, c-fos, Igf-1, Txnip)” value ([3]; TO1317-treated ovariectomized wild type mice, uterus) was “abolished” and the “activation of mutant variant of tk-Est/DR-4 reporter” value (LXRα; LXRα) was “not”. The “activation of tk-Est/DR-4 reporter” value (LXRα; LXRα) was “activated”, the “activation of 4.2-kb mEst promoter luciferase reporter” value (LXRα; wild type LXRα) was “activated” and the “recruitment of HA-LXRα onto the Est promoter (CHIP)” value (mouse LXRα) was “resulted in the recruitment”. The “activation of 2.1-kb natural Est promoter transfected into mouse liver” value [4] was “activated”, the “hepatic EST expression in nude mice” value ([5]; TO1317-treated vs mock-treated nude mice (data not shown)) was “significantly induced” and the “circulating E2 levels” value ([5]; tumor bearing mice, TO1317 15 mg/kg by gavage daily) was “decreased”. The “tumor cell BrdU labeling index” value (MCF-7/VEGF cells; E2-induced tumors, TO1317 15 mg/kg by gavage daily) was “decreased” and the “E2-enhanced tumor growth (tumor volume)” value (MCF-7/VEGF cells; E2 pellets, TO1317 15 mg/kg by gavage daily vs vehicle, 15 mg/kg) was “inhibited; also recorded: significantly attenuated”.
For `C[C@]12CC[C@@H]3c4ccc(O)cc4CC[C@H]3[C@@H]1CC[C@@H]2O` [E2, 17β-estradiol], the “uterine BrdU labeling” value ([2]; ovariectomized wild type mice, E2 25 μg/mouse s.c.) was “increased”, the “mRNA expression of Pgr, c-fos and Igf-1 in uterus” value [3, 6] was “induced” and the “mRNA expression of Txnip in uterus” value [3, 6] was “suppressed”. The “uterotropic effect (uterine enlargement, water imbibition)” value (uterus) was “typical uterine enlargement”.
With `CC(C)CC[C@@H](O)[C@@H](C)[C@H]1CC[C@H]2[C@@H]3CC=C4C[C@@H](O)CC[C@]4(C)[C@H]3CC[C@]12C` [22(R)-hydroxycholesterol] the “EST mRNA expression in liver” value [1] was “up-regulated”.

Source: US20080085879A1, “METHODS OF TREATING ESTROGEN-RESPONSIVE CONDITIONS BY ORPHAN NUCLEAR RECEPTOR ACTIVATION” (University of Pittsburgh - Of the Commonwealth System of …, priority 2006, published 2008)
